According to the NIST ThermoML archive (doi:10.1016/j.jct.2013.09.042):

How the values were obtained:
[1] = Molar enthalpy of transition or fusion; conditions: Crystal; DSC
[2] = Crystal; for vapor or sublimation pressure: Transpiration method; for Normal melting temperature: DTA

CCc1ccc(N=C2SCC3CCCN2C3)cc1 (centres undefined) [N-(4-ethylphenyl)-3-thia-1-azabicyclo[3.3.1]nonan-2-imine]
Conditions | Molar enthalpy of transition or fusion [kJ/mol] | Normal melting temperature [°C]
[1] | 16.4 | –
[2] | – | 121.5

[2]
Conditions | vapor or sublimation pressure [kPa]
359.15 K | 1.09e-05
362.15 K | 1.35e-05
364.15 K | 1.75e-05
366.15 K | 1.98e-05
368.15 K | 2.54e-05
371.15 K | 2.86e-05
374.15 K | 3.88e-05
376.15 K | 3.03e-05
377.15 K | 5.41e-05
380.15 K | 6.76e-05
381.15 K | 7.59e-05
382.15 K | 8.41e-05
384.15 K | 8.43e-05
386.15 K | 0.0001059
389.15 K | 0.0001278

Cc1cccc(N=C2SCC3CCCN2C3)c1 (centres undefined) [N-(m-tolyl)-3-thia-1-azabicyclo[3.3.1]nonan-2-imine]
Conditions | Molar enthalpy of transition or fusion [kJ/mol] | Normal melting temperature [°C]
[1] | 26.5 | –
[2] | – | 125.4

[2]
Conditions | vapor or sublimation pressure [kPa]
353.15 K | 5.65e-05
355.15 K | 7.21e-05
357.15 K | 9.52e-05
359.15 K | 0.0001112
361.15 K | 0.0001522
362.15 K | 0.0001678
364.15 K | 0.0002107
366.15 K | 0.0002637
368.15 K | 0.0003248
370.15 K | 0.0004227
372.15 K | 0.0005258
374.15 K | 0.0006715
376.15 K | 0.0008044

Cc1ccc(N=C2SCC3CCCN2C3)cc1Cl (centres undefined)
Conditions | Molar enthalpy of transition or fusion [kJ/mol] | Normal melting temperature [°C]
[1] | 22.7 | –
[2] | – | 133.5

[2]
Conditions | vapor or sublimation pressure [kPa]
376.15 K | 3.1e-05
377.15 K | 3.39e-05
378.15 K | 3.79e-05
379.15 K | 4.05e-05
381.15 K | 5.21e-05
382.15 K | 5.74e-05
383.15 K | 6.78e-05
384.15 K | 7.6e-05
386.15 K | 9.31e-05
388.15 K | 0.0001239
390.15 K | 0.0001553
392.15 K | 0.0002006
394.15 K | 0.0002521
396.15 K | 0.0003109

Clc1ccc(N=C2SCC3CCCN2C3)cc1 (centres undefined) [N-(4-chlorophenyl)-3-thia-1-azabicyclo[3.3.1]nonan-2-imine]
Conditions | Molar enthalpy of transition or fusion [kJ/mol] | Normal melting temperature [°C]
[1] | 11.8 | –
[2] | – | 138.7

[2]
Conditions | vapor or sublimation pressure [kPa]
368.15 K | 6.26e-05
369.15 K | 7.04e-05
371.15 K | 8.91e-05
373.15 K | 0.0001094
374.15 K | 0.0001327
375.15 K | 0.000149
376.15 K | 0.0001659
378.15 K | 0.0002065
380.15 K | 0.0002459
382.15 K | 0.0003128
384.15 K | 0.0003887
386.15 K | 0.0004737
388.15 K | 0.0005748
390.15 K | 0.0007333
391.15 K | 0.0008441

Clc1ccc(N=C2SCC3CCCN2C3)cc1Cl (centres undefined)
Conditions | Molar enthalpy of transition or fusion [kJ/mol] | Normal melting temperature [°C]
[1] | 23.5 | –
[2] | – | 97.8

[2]
Conditions | vapor or sublimation pressure [kPa]
352.15 K | 1.15e-05
353.15 K | 1.25e-05
354.15 K | 1.59e-05
355.15 K | 1.82e-05
356.15 K | 2.26e-05
357.15 K | 2.27e-05
358.15 K | 2.56e-05
359.15 K | 2.58e-05
360.15 K | 2.91e-05
361.15 K | 3.49e-05
362.15 K | 4e-05
363.15 K | 4.4e-05
